Results from patent US12441726B2, “Compounds and uses thereof” (Foghorn Therapeutics Inc., priority 2020, dated 2025).
Read-outs that look alike come from different tables or passages of the source.

Experiments:
[1] = target: BRG-1 (Homo sapiens, UniProt P51532); assay: ATPase catalytic activity assay (ADP-Glo), BRG-1; settings: for Emax: 1 h, read-out: BRG1 Max % Inhibition, ADP-Glo, 30 nM BRG-1, 400 μM ATP
Protocol: The ATPase catalytic activity of BRM or BRG-1 was measured by an in vitro biochemical assay using ADP-Glo™ (Promega, V9102). The ADP-Glo™ kinase assay is performed in two steps once the reaction is complete. The first step is to deplete any unconsumed ATP in the reaction. The second step is to convert the reaction product ADP to ATP, which will be utilized by the luciferase to generate luminesce and be detected by a luminescence reader, such as Envision.
Then following addition of 5 μL of ADP-Glo™ Reagent provided in the kit, the reaction incubates at room temperature for 40 minutes. Then 10 μL of Kinase Detection Reagent provided in the kit is added to convert ADP to ATP, and the reaction incubates at room temperature for 60 minutes. Finally, luminescence measurement is collected with a plate-reading luminometer, such as Envision.

[2] = target: BRM (Homo sapiens, UniProt P51531); assay: ATPase catalytic activity assay (ADP-Glo), BRM; settings: 30 nM BRM, 400 μM ATP; for IC50: BRM ATPase: IC50 (uM)
[3] = ADP-Glo, 30 nM BRG-1, 400 μM ATP

Sequence of BRG-1 (P51532 whole entry): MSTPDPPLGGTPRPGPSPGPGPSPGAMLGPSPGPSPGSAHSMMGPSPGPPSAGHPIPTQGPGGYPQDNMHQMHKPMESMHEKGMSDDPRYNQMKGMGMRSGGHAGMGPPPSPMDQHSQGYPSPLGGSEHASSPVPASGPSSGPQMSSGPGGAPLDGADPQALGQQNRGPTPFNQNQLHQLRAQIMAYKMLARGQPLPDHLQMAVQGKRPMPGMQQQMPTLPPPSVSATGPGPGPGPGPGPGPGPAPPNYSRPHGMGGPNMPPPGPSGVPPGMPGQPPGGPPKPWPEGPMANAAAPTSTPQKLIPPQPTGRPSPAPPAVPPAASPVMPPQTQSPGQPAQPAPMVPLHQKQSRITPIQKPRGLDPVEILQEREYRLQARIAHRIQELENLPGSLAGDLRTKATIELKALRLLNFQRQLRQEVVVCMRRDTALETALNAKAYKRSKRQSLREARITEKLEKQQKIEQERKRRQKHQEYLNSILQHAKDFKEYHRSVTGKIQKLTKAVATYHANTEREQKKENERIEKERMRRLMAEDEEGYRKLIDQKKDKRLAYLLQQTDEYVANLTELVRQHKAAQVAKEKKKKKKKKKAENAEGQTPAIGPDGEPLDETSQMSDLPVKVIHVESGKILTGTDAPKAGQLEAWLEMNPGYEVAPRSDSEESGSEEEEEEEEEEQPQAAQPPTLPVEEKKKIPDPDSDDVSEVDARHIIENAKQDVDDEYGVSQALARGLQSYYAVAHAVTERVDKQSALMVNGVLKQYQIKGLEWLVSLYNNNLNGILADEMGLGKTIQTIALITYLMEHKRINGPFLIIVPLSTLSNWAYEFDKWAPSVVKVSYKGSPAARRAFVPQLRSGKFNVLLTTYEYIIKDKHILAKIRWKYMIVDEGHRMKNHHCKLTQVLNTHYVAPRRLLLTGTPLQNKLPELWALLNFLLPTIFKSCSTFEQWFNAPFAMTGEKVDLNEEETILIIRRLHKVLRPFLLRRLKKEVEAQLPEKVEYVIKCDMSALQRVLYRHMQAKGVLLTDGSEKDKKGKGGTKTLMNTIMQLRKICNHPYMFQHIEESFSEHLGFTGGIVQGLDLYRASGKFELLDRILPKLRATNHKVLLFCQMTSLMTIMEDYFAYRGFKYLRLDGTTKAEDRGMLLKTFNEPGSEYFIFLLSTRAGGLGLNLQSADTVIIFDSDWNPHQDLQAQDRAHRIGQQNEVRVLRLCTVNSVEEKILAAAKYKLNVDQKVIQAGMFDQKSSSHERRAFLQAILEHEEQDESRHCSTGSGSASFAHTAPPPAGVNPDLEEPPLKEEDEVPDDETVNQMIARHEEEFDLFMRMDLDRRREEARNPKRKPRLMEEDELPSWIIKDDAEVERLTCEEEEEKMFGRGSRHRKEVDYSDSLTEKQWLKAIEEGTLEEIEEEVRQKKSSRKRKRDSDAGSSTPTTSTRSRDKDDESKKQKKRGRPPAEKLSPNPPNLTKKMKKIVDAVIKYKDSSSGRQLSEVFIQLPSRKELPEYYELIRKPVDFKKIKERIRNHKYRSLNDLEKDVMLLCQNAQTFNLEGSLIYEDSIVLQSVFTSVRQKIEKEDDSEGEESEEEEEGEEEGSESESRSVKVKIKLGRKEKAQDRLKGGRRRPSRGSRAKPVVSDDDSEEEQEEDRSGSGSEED
Sequence of BRM (P51531 whole entry): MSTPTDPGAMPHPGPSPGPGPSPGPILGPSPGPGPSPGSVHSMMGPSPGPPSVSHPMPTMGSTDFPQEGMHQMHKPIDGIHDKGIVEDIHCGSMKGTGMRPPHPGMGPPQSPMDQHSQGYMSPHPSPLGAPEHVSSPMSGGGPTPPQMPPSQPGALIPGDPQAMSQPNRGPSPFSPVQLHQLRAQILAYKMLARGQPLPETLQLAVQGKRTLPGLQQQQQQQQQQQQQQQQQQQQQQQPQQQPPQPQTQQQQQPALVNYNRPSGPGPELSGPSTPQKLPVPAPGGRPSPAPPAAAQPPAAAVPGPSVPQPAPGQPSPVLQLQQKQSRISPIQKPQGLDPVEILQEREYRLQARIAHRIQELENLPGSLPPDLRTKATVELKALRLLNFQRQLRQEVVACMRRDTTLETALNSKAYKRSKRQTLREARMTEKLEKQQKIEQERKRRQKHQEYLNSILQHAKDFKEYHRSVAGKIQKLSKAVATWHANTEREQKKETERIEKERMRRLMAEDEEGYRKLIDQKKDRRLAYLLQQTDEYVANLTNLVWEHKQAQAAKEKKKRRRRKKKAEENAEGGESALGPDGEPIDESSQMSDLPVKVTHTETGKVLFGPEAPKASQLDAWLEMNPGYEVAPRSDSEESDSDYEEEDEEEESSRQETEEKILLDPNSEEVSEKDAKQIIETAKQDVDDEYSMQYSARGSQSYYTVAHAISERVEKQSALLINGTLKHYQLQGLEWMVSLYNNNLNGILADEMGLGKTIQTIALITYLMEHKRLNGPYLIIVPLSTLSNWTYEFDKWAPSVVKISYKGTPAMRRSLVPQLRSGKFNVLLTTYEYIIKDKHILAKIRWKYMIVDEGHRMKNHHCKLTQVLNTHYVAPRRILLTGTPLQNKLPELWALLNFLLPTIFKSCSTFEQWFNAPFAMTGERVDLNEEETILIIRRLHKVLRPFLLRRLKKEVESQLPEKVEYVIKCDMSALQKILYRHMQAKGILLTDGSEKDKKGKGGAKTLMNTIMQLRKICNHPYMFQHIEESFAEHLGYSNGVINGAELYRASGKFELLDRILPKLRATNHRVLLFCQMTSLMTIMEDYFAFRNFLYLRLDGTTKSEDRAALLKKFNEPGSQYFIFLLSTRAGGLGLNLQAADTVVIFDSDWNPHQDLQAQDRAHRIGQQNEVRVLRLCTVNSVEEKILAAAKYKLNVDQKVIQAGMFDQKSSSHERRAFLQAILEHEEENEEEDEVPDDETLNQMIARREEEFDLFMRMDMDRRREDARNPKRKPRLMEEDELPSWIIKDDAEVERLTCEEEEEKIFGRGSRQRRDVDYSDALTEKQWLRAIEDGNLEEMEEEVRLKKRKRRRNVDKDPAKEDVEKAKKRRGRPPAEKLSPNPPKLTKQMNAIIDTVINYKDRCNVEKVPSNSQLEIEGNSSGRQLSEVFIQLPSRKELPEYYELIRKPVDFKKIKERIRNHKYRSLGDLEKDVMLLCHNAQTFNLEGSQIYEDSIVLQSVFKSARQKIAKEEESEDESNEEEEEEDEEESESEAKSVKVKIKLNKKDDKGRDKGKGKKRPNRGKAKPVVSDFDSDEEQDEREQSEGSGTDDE

## C[C@@]1(C#N)COCc2ccc(C(=O)NCc3cc4nc(-c5ccccc5)ccc4cn3)cc21 [Compound 85]
[1]; [3]
  BRG1 Max % Inhibition: 77%
[1]; read-out: BRG1 ATPase: IC50, ADP-Glo, 30 nM BRG-1, 400 μM ATP
  IC50: > 1000 nM
[2]
  BRM Max % Inhibition: 98%
  IC50: < 0.1 µM

## C[C@@]1(F)COCc2ccc(C(=O)NCc3cc4nc(-c5ccccc5)ccc4cn3)cc21 [Compound 86]
[1]
  IC50: > 1000 nM
  Emax: 62%
[2]
  BRM Max % Inhibition: 96%
  IC50: 0.1 to 0.5 µM

## C[C@H](NC(=O)c1ccc2c(c1)[C@](C)(C#N)COC2)c1cc2nc(-c3ccccc3)ccc2cn1 [Compound 87]
[1]
  IC50: > 1000 nM
  Emax: 87%
[2]
  BRM Max % Inhibition: 88%
  IC50: 0.5 to 1 µM

## C[C@@H](NC(=O)c1ccc2c(c1)[C@](C)(C#N)COC2)c1cc2nc(-c3ccccc3)ccc2cn1 [Compound 88]
[1]
  IC50: > 1000 nM
  Emax: 73%
[2]
  BRM Max % Inhibition: 96%
  IC50: 0.1 to 0.5 µM

## C[C@@]1(O)COCc2ccc(C(=O)NCc3cc4nc(-c5ccccc5)ccc4cn3)cc21 [Compound 89]
[1]
  IC50: > 1000 nM
  Emax: 15%
[2]
  BRM Max % Inhibition: 76%
  IC50: > 1 µM

## C[C@@]1(CO)CCc2ccc(C(=O)NCc3cc4nc(-c5ccccc5)ccc4cn3)cc21 [Compound 90]
[1]
  IC50: > 1000 nM
  Emax: 24%
[2]
  BRM Max % Inhibition: 82%
  IC50: > 1 µM

## COc1cccc(-c2ccc3cnc(CNC(=O)c4ccc5c(c4)[C@](C)(C#N)COC5)cc3n2)c1 [Compound 91]
[1]
  IC50: 500 to 1000 nM
  Emax: 85%
[2]
  BRM Max % Inhibition: 97%
  IC50: < 0.1 µM

## C[C@@]1(C#N)COCc2ccc(C(=O)NCc3cc4c(cn3)CCN(c3ccccc3)C4)cc21 [Compound 92]
[1]
  IC50: > 1000 nM
  Emax: 64%
[2]
  BRM Max % Inhibition: 95%
  IC50: 0.1 to 0.5 µM

## COC(=O)c1cccc(-c2ccc3cnc(CNC(=O)c4ccc5c(c4)[C@](C)(C#N)COC5)cc3n2)c1 [Compound 93]
[1]
  IC50: 100 to 500 nM
  Emax: 93%
[2]
  BRM Max % Inhibition: 99%
  IC50: < 0.1 µM

## C[C@@]1(C#N)COCc2ccc(C(=O)NCc3cc4nc(C5CC5)ccc4cn3)cc21 [Compound 94]
[1]
  IC50: > 1000 nM
  Emax: 45%
[2]
  BRM Max % Inhibition: 83%
  IC50: > 1 µM

## C[C@@]1(C#N)COCc2ccc(C(=O)NCc3cc4nc(-c5cc(F)cc(N6CCC6)c5)ccc4cn3)cc21 [Compound 95]
[1]
  IC50: 100 to 500 nM
  Emax: 93%
[2]
  BRM Max % Inhibition: 99%
  IC50: < 0.1 µM

## CN1C[C@@](C)(C#N)c2cc(C(=O)NCc3cc4nc(-c5ccccc5)ccc4cn3)ccc21 [Compound 96]
[1]
  IC50: > 1000 nM
  Emax: 20%
[2]
  BRM Max % Inhibition: 84%
  IC50: > 1 µM

## C[C@@]1(C#N)COCc2ccc(C(=O)NCc3cc4nc(-c5ccccc5)ccc4cn3)cc21 [Compound 97]
[1]
  IC50: > 1000 nM
[1]; [3]
  BRG1 Max % Inhibition: 47%
[2]
  BRM Max % Inhibition: 93%
  IC50: 0.1 to 0.5 µM

## C[C@@]1(C#N)COCc2ccc(C(=O)NCc3cc4nc(-c5cccc(C(F)F)c5)ccc4cn3)cc21 [Compound 98]
[1]
  IC50: > 1000 nM
  Emax: 81%
[2]
  BRM Max % Inhibition: 97%
  IC50: < 0.1 µM

## C[C@@]1(C#N)COc2ccc(C(=O)NCc3cc4nc(-c5ccccc5)ccc4cn3)cc21 [Compound 99]
[1]
  IC50: > 1000 nM
  Emax: 22%
[2]
  BRM Max % Inhibition: 63%
  IC50: > 1 µM

## O=C(NCc1cc2nc(-c3ccccc3)ccc2cn1)c1cccc(C2(C(F)F)COC2)c1 [Compound 100]
[1]
  IC50: > 1000 nM
  Emax: 25%
[2]
  BRM Max % Inhibition: 83%
  IC50: 0.5 to 1 µM

## COc1cc(F)cc(-c2ccc3cnc(CNC(=O)c4ccc5c(c4)[C@](C)(C#N)COC5)cc3n2)c1 [Compound 101]
[1]
  IC50: 500 to 1000 nM
  Emax: 78%
[2]
  BRM Max % Inhibition: 98%
  IC50: < 0.1 µM

## C[C@@]1(C#N)COCc2ccc(C(=O)NCc3cc4nc(-c5ccccn5)ccc4cn3)cc21 [Compound 102]
[1]
  IC50: > 1000 nM
  Emax: 56%
[2]
  BRM Max % Inhibition: 93%
  IC50: 0.1 to 0.5 µM

## C[C@@]1(C#N)COCc2ccc(C(=O)NCc3cc4nc(N5CCCCC5)ccc4cn3)cc21 [Compound 103]
[1]
  IC50: > 1000 nM
  Emax: 71%
[2]
  BRM Max % Inhibition: 94%
  IC50: 0.1 to 0.5 µM

## Cn1cc(-c2ccc3cnc(CNC(=O)c4ccc5c(c4)[C@](C)(C#N)COC5)cc3n2)cn1 [Compound 104]
[1]
  IC50: > 1000 nM
  Emax: 33%
[2]
  BRM Max % Inhibition: 84%
  IC50: 0.5 to 1 µM

## Cn1ncc2cc(-c3ccc4cnc(CNC(=O)c5ccc6c(c5)[C@](C)(C#N)COC6)cc4n3)ccc21 [Compound 105]
[1]
  IC50: 500 to 1000 nM
  Emax: 87%
[2]
  BRM Max % Inhibition: 98%
  IC50: < 0.1 µM

## C[C@@]1(C#N)COCc2ccc(C(=O)NCc3cnc4ccc(-c5ccccc5)nc4c3)cc21 [Compound 106]
[1]
  IC50: > 1000 nM
  Emax: 32%
[2]
  BRM Max % Inhibition: 80%
  IC50: > 1 µM

## C[C@@]1(C#N)COCc2ccc(C(=O)NCc3cc4nc(C5CCOCC5)ccc4cn3)cc21 [Compound 107]
[1]
  IC50: > 1000 nM
  Emax: 16%
[2]
  BRM Max % Inhibition: 71%
  IC50: > 1 µM

## COc1ccc(-c2ccc3cnc(CNC(=O)c4ccc5c(c4)[C@](C)(C#N)COC5)cc3n2)cc1 [Compound 108]
[1]
  IC50: 500 to 1000 nM
  Emax: 91%
[2]
  BRM Max % Inhibition: 99%
  IC50: < 0.1 µM

## C[C@@]1(CO)COCc2ccc(C(=O)NCc3cc4nc(-c5ccccc5)ccc4cn3)cc21 [Compound 109]
[1]
  IC50: > 1000 nM
  Emax: 11%
[2]
  BRM Max % Inhibition: 75%
  IC50: > 1 µM

## Cn1ncc2ccc(-c3ccc4cnc(CNC(=O)c5ccc6c(c5)[C@](C)(C#N)COC6)cc4n3)cc21 [Compound 110]
[1]
  IC50: 500 to 1000 nM
  Emax: 86%
[2]
  BRM Max % Inhibition: 99%
  IC50: < 0.1 µM

## COc1ccccc1-c1ccc2cnc(CNC(=O)c3ccc4c(c3)[C@](C)(C#N)COC4)cc2n1 [Compound 111]
[1]
  IC50: 100 to 500 nM
  Emax: 93%
[2]
  BRM Max % Inhibition: 101%
  IC50: < 0.1 µM

## C[C@@]1(C#N)COCc2ccc(C(=O)NCc3cc4nc(-c5cccc(C#N)c5)ccc4cn3)cc21 [Compound 112]
[1]
  IC50: > 1000 nM
  Emax: 55%
[2]
  BRM Max % Inhibition: 94%
  IC50: 0.1 to 0.5 µM

## Cn1ccc(-c2ccc3cnc(CNC(=O)c4ccc5c(c4)[C@](C)(C#N)COC5)cc3n2)n1 [Compound 113]
[1]
  IC50: > 1000 nM
  Emax: 32%
[2]
  BRM Max % Inhibition: 79%
  IC50: > 1 µM

## C[C@@]1(C#N)COCc2ccc(C(=O)NCc3cc4nc(-c5cccnc5)ccc4cn3)cc21 [Compound 114]
[1]
  IC50: > 1000 nM
  Emax: 42%
[2]
  BRM Max % Inhibition: 86%
  IC50: 0.5 to 1 µM

## C[C@@]1(CO)COCc2ccc(C(=O)NCc3cc4nc(-c5ccccc5)sc4cn3)cc21 [Compound 115]
[1]
  IC50: > 1000 nM
  Emax: 19%
[2]
  BRM Max % Inhibition: 84%
  IC50: > 1 µM

## C[C@@]1(C#N)CCNc2ccc(C(=O)NCc3cc4nc(-c5ccccc5)ccc4cn3)cc21 [Compound 116]
[1]
  IC50: > 1000 nM
  Emax: 22%
[2]
  BRM Max % Inhibition: 76%
  IC50: > 1 µM

## C[C@@]1(C#N)COc2ccc(C(=O)NCc3cc4nc(-c5ccccc5)sc4cn3)cc21 [Compound 117]
[1]
  IC50: > 1000 nM
  Emax: 27%
[2]
  BRM Max % Inhibition: 74%
  IC50: > 1 µM

## C[C@@]1(C#N)CCOc2ccc(C(=O)NCc3cc4nc(-c5ccccc5)sc4cn3)cc21 [Compound 118]
[1]
  IC50: > 1000 nM
  Emax: 40%
[2]
  BRM Max % Inhibition: 89%
  IC50: > 1 µM

## C[C@@]1(O)COCc2ccc(C(=O)NCc3cc4nc(-c5ccccc5)sc4cn3)cc21 [Compound 119]
[1]
  IC50: > 1000 nM
  Emax: 18%
[2]
  BRM Max % Inhibition: 81%
  IC50: > 1 µM

## C[C@@]1(C#N)CCNc2ccc(C(=O)NCc3cc4nc(-c5ccccc5)sc4cn3)cc21 [Compound 120]
[1]
  IC50: > 1000 nM
  Emax: 0%
[2]
  BRM Max % Inhibition: 8%
  IC50: > 1 µM

## COC(=O)N1CCCC(c2ccc3cnc(CNC(=O)c4ccc5c(c4)[C@](C)(C#N)COC5)cc3n2)C1 (some centres unmarked) [Compound 121]
[1]
  IC50: > 1000 nM
  Emax: 44%
[2]
  BRM Max % Inhibition: 81%
  IC50: > 1 µM

## C[C@@]1(C#N)COCc2ncc(C(=O)NCc3cc4nc(-c5ccccc5)ccc4cn3)cc21 [Compound 122]
[1]
  IC50: > 1000 nM
  Emax: 62%
[2]
  BRM Max % Inhibition: 94%
  IC50: 0.1 to 0.5 µM

## C[C@@]1(C#N)COCc2ccc(C(=O)NCc3cc4cc(-c5ccccc5)ccc4cn3)cc21 [Compound 123]
[1]
  IC50: > 1000 nM
  Emax: 74%
[2]
  BRM Max % Inhibition: 96%
  IC50: 0.1 to 0.5 µM

## C[C@@]1(C#N)COCc2ccc(C(=O)NCc3cc4nc(-c5ccccc5)sc4cn3)cc21 [Compound 124]
[1]
  IC50: > 1000 nM
  Emax: 98%
[2]
  BRM Max % Inhibition: 97%
  IC50: < 0.1 µM

## C[C@@]1(C#N)COCc2ccc(C(=O)NCc3cc4nc(-c5ccc(N6CCC6)cc5)ccc4cn3)cc21 [Compound 125]
[1]
  IC50: 500 to 1000 nM
  Emax: 86%
[2]
  BRM Max % Inhibition: 98%
  IC50: 0.1 to 0.5 µM

## C[C@@]1(C#N)COCc2ccc(C(=O)NCc3cc4nc(-c5cccc(N6CCC6)c5)ccc4cn3)cc21 [Compound 126]
[1]
  IC50: > 1000 nM
  Emax: 51%
[2]
  BRM Max % Inhibition: 95%
  IC50: 0.1 to 0.5 µM

## COc1cc(C2CCC2)ccc1-c1ccc2cnc(CNC(=O)c3ccc4c(c3)[C@](C)(C#N)COC4)cc2n1 [Compound 127]
[1]
  IC50: 500 to 1000 nM
  Emax: 74%
[2]
  BRM Max % Inhibition: 96%
  IC50: < 0.1 µM

## COCCN1CCC(c2cccc(-c3ccc4cnc(CNC(=O)c5ccc6c(c5)[C@](C)(C#N)COC6)cc4n3)n2)CC1 [Compound 128]
[1]
  IC50: > 1000 nM
  Emax: 39%
[2]
  BRM Max % Inhibition: 82%
  IC50: 0.1 to 0.5 µM
